How the values were obtained:
Format in all cases: in vivo
dog = assay: Anti-emetic activity in dogs, modified anti-apomorphine method; conditions: fumarate salts; for ED50: Canis lupus familiaris, sc, expressed as free base, read-out: ED50 (95% Confidence Limits), anti-apomorphine
Procedure: The anti-emetic properties of the fumarate salts were established in dogs using a modification of the anti-apomorphine methods of Chen and Ensor, J. Pharmac. Exp. Ther. 98, 245-250 (1950) and of Leonard et al., J. Pharmac. Exp. Ther. 154, 339-345 (1966) and the ED50 was calculated by the method of Goldstein (Biostatistics, An Introductory Text, pg. 156-161, The MacMillan Co., N. Y., 1964).

rat = assay: Cataleptic effects in rat, procedure based on Tedeschi et al.; conditions: for cataleptic effect (NSE = no significant cataleptic effect in doses up to indicated amount): rat, fumarate salts, expressed as free base
From the text: (§1) The procedure used for determining cataleptic effects of the fumarate salts was based on that of Tedeschi et al., Arch. Int. Pharmacodyn.

[1] = as above; conditions: in vivo; rat, IP; fumarate salts, expressed as free base; read-out: ED50, cataleptic effect
From the text: as §1

| SMILES | ED50 (dog) [mg/kg] | cataleptic properties (rat; general statement) | cataleptic effect (NSE = no significant cataleptic effect in doses up to indicated amount) (rat; IP) | cataleptic effect (NSE = no significant cataleptic effect in doses up to indicated amount) (rat; PO) | ED50 [1] [mg/kg] | anti-apomorphine activity (words in the ED50 column) (dog; s.c.) |
| --- | --- | --- | --- | --- | --- | --- |
| CN(C(=O)c1ccc(N)cc1)C1CCN(C2CCCCC2)C1 (racemic) [± racemate, 4-amino-N-(1-cyclohexyl-3-pyrrolidinyl)-N-methylbenzamide] | 0.25 | notable absence of cataleptic properties | NSE to 100 | NSE to 200 | – | – |
| CN(C(=O)c1ccc(N)cc1)C1CCN(C2CCCCC2)C1 (single isomer, unassigned; (-)) [(-)-isomer, (-)-4-amino-N-(1-cyclohexyl-3-pyrrolidinyl)-N-methylbenzamide] | 0.09 | – | – | – | > 100 | – |
| CN(C(=O)c1ccc(N)cc1)C1CCN(C2CCCCC2)C1 (single isomer, unassigned; (+)) [(+)-isomer, (+)-4-amino-N-(1-cyclohexyl-3-pyrrolidinyl)-N-methylbenzamide] | – | – | NSE to 100 | NSE to 200 | – | no significant |

Reference: patent publication US4282243A, “Optical isomers of 4-amino-N-(1-cyclohexyl-3-pyrrolidinyl)-N-methylbenzamide” (A. H. Robins Company, Inc., priority 1980, dated 1981)
